The results in this text go back to paper PMC12396409, “Screening and hit evaluation of a microbial metabolite library against the pathogenic Plasmodium falciparum and Toxoplasma gondii parasites” (International Journal for Parasitology: Drugs and Drug …, 2025).

Test [1] concerns P. falciparum 3D7 parasites. As to the kind of experiment: P. falciparum growth inhibition assay, 1-cycle (72 h treatment), SYBR DNA staining (library screen at 2 μg/mL and dose-response). The conditions noted are these: for Pf_72h_%Growth_Rep1: replicate 1; for Pf_72h_%Growth_Rep2: replicate 2. Type of test: cell-based, Plasmodium falciparum.
Test [2] relates to P. falciparum 3D7 parasites. As to the kind of experiment: P. falciparum growth inhibition assay, 2-cycle (120 h treatment), delayed-death screen and dose-response. The class given is cell-based, Plasmodium falciparum. The settings on record: for Pf_120h_%Growth_Rep1: replicate 1; for Pf_120h_%Growth_Rep2: replicate 2.
Test [3] relates to T. gondii RH strain (RH-Tub-eYFP) tachyzoites. As to the kind of experiment: microbe, parasite or virus in culture. Type of test: cell-based, Toxoplasma gondii. The settings on record: 72 h; for Tg_72h_%Growth_Rep1: replicate 1; for Tg_72h_%Growth_Rep2: replicate 2.
Setting [4] is: P. falciparum 3D7, 72 h, library screen at 2 μg/mL, % growth.
The mark [5] stands for this setting: P. falciparum 3D7, 120 h, library screen at 2 μg/mL, % growth.
[6] abbreviates: T. gondii RH, library screen at 2 μg/mL, % growth.
[7] abbreviates: library screen at 2 μg/mL, 72 h, % growth.
Setting [8] is: library screen at 2 μg/mL, 120 h, % growth.
Where [9] appears, read: library screen at 2 μg/mL, % growth.
Where [10] appears, read: P. falciparum, 72 h, parasite screen 2 μg/mL, % growth.
Setting [11] is: P. falciparum, 120 h, parasite screen 2 μg/mL, % growth.
Where [12] appears, read: T. gondii, parasite screen 2 μg/mL, % growth.
The mark [13] stands for this setting: P. falciparum, 72 h, screen at 2 μg/mL.
Setting [14] is: P. falciparum, 120 h, screen at 2 μg/mL.

With `CCCCCC(=O)OC1C(C)OC(OC2C(C)OC(OC3C(CC=O)CC(C)C(O)C=CC=CCC(C)OC(=O)CC(O)C3OC)C(O)C2N(C)C)CC1(C)O` (stereo not drawn) [BIA-L1365], in test [1] (setting [4]), the Pf_72h_%Growth_Rep1 is listed as 29.67% and the Pf_72h_%Growth_Rep2 is given as 36.72%. In test [2] (setting [5]), the Pf_120h_%Growth_Rep1 turned out to be 2.62% and the Pf_120h_%Growth_Rep2 came to 15.42%. Further, in test [3] (setting [6]), the Tg_72h_%Growth_Rep1 is on record as 22.41% and the Tg_72h_%Growth_Rep2 worked out at 22.70%.
On to `COc1cc(O)c2c(c1C)C(C)C(O)(CO)OC2=O` (stereo not drawn) [Banksialactone A], for which, in test [1] (setting [7]), the Pf_72h_%Growth_Rep1 is 70.20% and the Pf_72h_%Growth_Rep2 was found to be 86.53%. Further, in test [2] (setting [8]), the Pf_120h_%Growth_Rep1 came out at 148.50% and the Pf_120h_%Growth_Rep2 was found to be 82.39%. In test [3] (setting [9]), the Tg_72h_%Growth_Rep1 was found to be 101.56% and the Tg_72h_%Growth_Rep2 came out at 97.07%.
With `CC[C@@H](C(=O)[C@@H](C)[C@@H](O)[C@H](C)[C@@H]1O[C@@H]([C@@H](CC)C(=O)O)CC[C@@H]1C)[C@H]1O[C@]2(C=C[C@@H](O)[C@]3(CC[C@@](C)([C@H]4CC[C@](O)(CC)[C@H](C)O4)O3)O2)[C@H](C)C[C@@H]1C` [Salinomycin sodium], in test [1] (setting [10]), the Pf_72h_%Growth_Rep1 worked out at 3.74% and the Pf_72h_%Growth_Rep2 is reported as -3.65%. Also, in test [2] (setting [11]), the Pf_120h_%Growth_Rep1 was found to be 8.77% and the Pf_120h_%Growth_Rep2 is on record as -2.16%. For the same molecule, in test [3] (setting [12]), the Tg_72h_%Growth_Rep1 was determined as 1.25% and the Tg_72h_%Growth_Rep2 is listed as 0.43%.
For the molecule `CN1C(=O)c2ccccc2NC(=O)[C@@H]1Cc1ccccc1` [Cyclopeptine], in test [1] (setting [13]), the Pf_72h_%Growth_Rep1 was 53.40% and the Pf_72h_%Growth_Rep2 was 63.93%. In test [2] (setting [14]), the Pf_120h_%Growth_Rep1 was determined as 15.88% and the Pf_120h_%Growth_Rep2 is 61.17%. Further, in test [3] (T. gondii, screen at 2 μg/mL), the Tg_72h_%Growth_Rep1 is listed as 139.33% and the Tg_72h_%Growth_Rep2 was 93.22%.
`C/C=C/[C@@H]1C=C[C@@H]2C[C@H](C)CC[C@H]2[C@]1(C)/C(O)=C1/C(=O)[C@H](CO)N(C)C1=O` [Equisetin]: in test [1] (setting [7]), the Pf_72h_%Growth_Rep1 is listed as 83.58% and the Pf_72h_%Growth_Rep2 was found to be 91.13%. Also, in test [2] (setting [8]), the Pf_120h_%Growth_Rep1 was 83.53% and the Pf_120h_%Growth_Rep2 was found to be 117.48%. Further, in test [3] (setting [9]), the Tg_72h_%Growth_Rep1 is 89.36% and the Tg_72h_%Growth_Rep2 is recorded as 86.41%.
On to `COc1c(OC)c(-c2c[nH]c3ccccc23)c(OC)c(OC)c1-c1c[nH]c2ccccc12` [Asterriquinol D dimethylether], for which, in test [1] (setting [7]), the Pf_72h_%Growth_Rep1 is listed as 80.59% and the Pf_72h_%Growth_Rep2 is given as 80.67%. Further, in test [2] (setting [8]), the Pf_120h_%Growth_Rep1 is recorded as 55.71% and the Pf_120h_%Growth_Rep2 turned out to be 80.70%. In test [3] (setting [9]), the Tg_72h_%Growth_Rep1 came out at 135.53% and the Tg_72h_%Growth_Rep2 stood at 89.90%.
As to `CC(=O)OC[C@]12CCC(C)=C[C@H]1O[C@@H]1[C@H](O)[C@@H](O)[C@@]2(C)[C@]12CO2` [Acetoxyscirpenol, 15-], in test [1] (setting [7]), the Pf_72h_%Growth_Rep1 is reported as 9.02% and the Pf_72h_%Growth_Rep2 worked out at 0.50%. Also, in test [2] (setting [8]), the Pf_120h_%Growth_Rep1 worked out at 8.73% and the Pf_120h_%Growth_Rep2 came out at 7.76%. Besides, in test [3] (setting [9]), the Tg_72h_%Growth_Rep1 is recorded as -2.14% and the Tg_72h_%Growth_Rep2 stood at 0.34%.
